Measurements as given in patent US20080275023A1, “N-Hydroxyamides Omege-Substituted with Tricyclic Groups as Histone Deacetylase Inhibitors, Their Preparation and Use in Pharmaceutical Formulations” (priority 2005, published 2008).

Tests used:
[1] = system: histone deacetylase (HDAC), HeLa nuclear extract; assay: Deacetylase activity on nuclear extract of HeLa cells (Fluor de Lys kit); format: biochemical, human; conditions: 0.1 μM compound, percent inhibition relative to control without inhibitor
Protocol: The activity of the compounds as histone deacetylase (HDAC) inhibitors was measured using an in vitro acetylation assay. The compounds were then evaluated as inhibitors of proliferation of human tumor cell cultures.
Deacetylase Activity on Nuclear Extract of Hela Cells (Human Cervical Cancer Cell)
The assay (Fluor de Lys™ kit, BioMol) is divided into two steps: in the first step the substrate which comprises an acetylated lysine residue is reacted with the nuclear extract (HeLa) containing the enzymatic activity in the presence and absence of inhibitors. In the second step a fluorogenic reagent is added which highlights the deacetylated residues. A reduction in fluorescence is obtained where there has been inhibition of the deacetylase activity.

[2] = system: HCT-116 human colon carcinoma cells; assay: Cytotoxic activity on culture of human colon carcinoma cells HCT-116 (Alamar Blue); format: cell-based; conditions: HCT-116 cells, 72 hours after addition of compounds, Alamar Blue viability
Protocol: Evaluation of Cytotoxic Activity on Culture of Human Colon Carcinoma Cells HCT-116
Human colon carcinoma cells HCT-116 were seeded onto 96-well plates in RPMI1640 culture medium with added 10% FBS and 2 mM glutamine. 24 hours after seeding, the compounds at different concentrations are added. All the compounds are diluted in DMSO such that the final concentrations on the cultures is no greater than 0.5%. 72 hours after addition of the compounds, cell viability is measured by means of the dye Alamar Blue. The result is expressed as percent survival of the treated relative to the control, treated with carrier alone.

O=C(CCCCCN1C(=O)c2ccccc2S(=O)(=O)c2ccccc21)NO [Example 8, 6-(5,5,11-Trioxo-5,11-dihydro-5λ^6-dibenzo[b,f][1,4]thiazepin-10-yl)-hexanoic acid hydroxyamide]
% inhib at 0.1 μM [1]: 73%
IC50 [2]: 105 nM

COc1ccc2c(c1)N(CCCCCC(=O)NO)C(=O)c1ccccc1S2(=O)=O [Example 9, 6-(8-Methoxy-5,5,11-trioxo-5,11-dihydro-5λ^6-dibenzo[b,f][1,4]thiazepin-10-yl)-hexanoic acid hydroxyamide]
% inhib at 0.1 μM [1]: 83%
IC50 [2]: 40 nM

O=C(CCCCCN1C(=O)c2ccccc2S(=O)(=O)c2ccc(Cl)cc21)NO [Example 10, 6-(8-Chloro-5,5,11-trioxo-5,11-dihydro-5λ^6-dibenzo[b,f][1,4]thiazepin-10-yl)-hexanoic acid hydroxyamide]
% inhib at 0.1 μM [1]: 77%
IC50 [2]: 30 nM

COc1ccc2c(c1)N(CCCCCC(=O)NO)C(=O)c1ccccc1[S+]2[O-] (stereo not shown) [Example 11, 6-(8-Methoxy-5,11-dioxo-5,11-dihydro-5λ^4-dibenzo[b,f][1,4]thiazepin-10-yl)-hexanoic acid hydroxyamide]
% inhib at 0.1 μM [1]: 73%
IC50 [2]: 50 nM

O=C(CCCCCN1C(=O)c2ccccc2Oc2ccccc21)NO [Example 12, 6-(11-Oxo-11H-dibenzo[b,f][1,4]oxazepin-10-yl)-hexanoic acid hydroxyamide]
% inhib at 0.1 μM [1]: 66%
IC50 [2]: 640 nM

COc1ccc2c(c1)N(CCCCCC(=O)NO)C(=O)c1ccccc1O2 [Example 13, 6-(8-Methoxy-11-oxo-11H-dibenzo[b,f][1,4]oxazepin-10-yl)-hexanoic acid hydroxyamide]
% inhib at 0.1 μM [1]: 73%
IC50 [2]: 310 nM

O=C(CCCCCN1C(=O)c2ccccc2Oc2ccc(Cl)cc21)NO [Example 14, 6-(8-Chloro-11-oxo-11H-dibenzo[b,f][1,4]oxazepin-10-yl)-hexanoic acid hydroxyamide]
% inhib at 0.1 μM [1]: 65%
IC50 [2]: 200 nM

O=C(CCCCCCN1C(=O)c2ccccc2Oc2ccccc21)NO [Example 15, 7-(11-Oxo-11H-dibenzo[b,f][1,4]oxazepin-10-yl)-heptanoic acid hydroxyamide]
% inhib at 0.1 μM [1]: 62%
IC50 [2]: 200 nM

O=C(CCCCCN1C(=O)c2cscc2Nc2cc(Cl)c(Cl)cc21)NO [Example 17, 6-(6,7-Dichloro-10-oxo-4H,10H-2-thia-4,9-diaza-benzo[f]azulen-9-yl)-hexanoic acid hydroxyamide]
IC50 [2]: 800 nM

CN(C)c1ccc2c(c1)S(=O)(=O)N(CCCCCC(=O)NO)c1ccccc1N2 [Example 20, 6-(8-Dimethylamino-10,10-dioxo-5,10-dihydro-10λ^6-thia-5,11-diaza-dibenzo[a,d]cyclohepten-11-yl)-hexanoic acid hydroxyamide]
% inhib at 0.1 μM [1]: 40%
IC50 [2]: 390 nM

COc1ccc2c(c1)Nc1ccccc1S(=O)(=O)N2CCCCCC(=O)NO [Example 21, 6-(3-Methoxy-10,10-dioxo-5,10-dihydro-10λ^6-thia-5,11-diaza-dibenzo[a,d]cyclohepten-11-yl)-hexanoic acid hydroxyamide]
IC50 [2]: 290 nM

O=C(CCCCCN1c2ccccc2Oc2ccccc2S1(=O)=O)NO [Example 23, 6-(10,10-Dioxo-10H-5-oxa-10λ^6-thia-11-aza-dibenzo[a,d]cyclohepten-11-yl)-hexanoic acid hydroxyamide]
% inhib at 0.1 μM [1]: 48%
IC50 [2]: 190 nM

O=C(CCCCCN1c2cc(F)ccc2Nc2ccccc2S1(=O)=O)NO [Example 25, 6-(2-Fluoro-10,10-dioxo-5,10-dihydro-10λ^6-thia-5,11-diaza-dibenzo[a,d]cyclohepten-11-yl)-hexanoic acid hydroxyamide]
% inhib at 0.1 μM [1]: 42%
IC50 [2]: 1500 nM

CN(C)c1ccc2c(c1)S(=O)(=O)N(CCCCCC(=O)NO)c1ccc(O)cc1N2 [Example 26, 6-(8-Dimethylamino-3-hydroxy-10,10-dioxo-5,10-dihydro-10λ^6-thia-5,11-diaza-dibenzo[a,d]cyclohepten-11-yl)-hexanoic acid hydroxyamide]
% inhib at 0.1 μM [1]: 66%
IC50 [2]: 1000 nM

COc1ccc2c(c1)Nc1ccc(N(C)C)cc1S(=O)(=O)N2CCCCCC(=O)NO [Example 27, 6-(8-Dimethylamino-3-methoxy-10,10-dioxo-5,10-dihydro-10λ^6-thia-5,11-diaza-dibenzo[a,d]cyclohepten-11-yl)-hexanoic acid hydroxyamide]
% inhib at 0.1 μM [1]: 63%
IC50 [2]: 400 nM

COc1ccc2c(c1)N(CCCCCC(=O)NO)S(=O)(=O)c1ccccc1N2 [Example 29, 6-(2-Methoxy-10,10-dioxo-5,10-dihydro-10λ^6-thia-5,11-diaza-dibenzo[a,d]cyclohepten-11-yl)-hexanoic acid hydroxyamide]
% inhib at 0.1 μM [1]: 54%
IC50 [2]: 900 nM

COc1ccc2c(c1)Nc1ccccc1N(CCCCCC(=O)NO)S2(=O)=O [Example 30, 6-(7-Methoxy-10,10-dioxo-5,10-dihydro-10λ^6-thia-5,11-diaza-dibenzo[a,d]cyclohepten-11-yl)-hexanoic acid hydroxyamide]
% inhib at 0.1 μM [1]: 65%
IC50 [2]: 390 nM

Nc1cccc2c1Nc1ccccc1S(=O)(=O)N2CCCCCC(=O)NO [Example 32, 6-(4-Amino-10,10-dioxo-5,10-dihydro-10λ^6-thia-5,11-diaza-dibenzo[a,d]cyclohepten-11-yl)-hexanoic acid hydroxyamide]
% inhib at 0.1 μM [1]: 47%
IC50 [2]: 2000 nM
